Data as given in ChEMBL document CHEMBL1155157, “Fosamprenavir plus ritonavir increases plasma ketoconazole and ritonavir exposure, while amprenavir exposure remains unchanged” (Antimicrob Agents Chemother, 2007).

What was measured:
[1] = Cmax in human plasma at 200 mg qd for 4 days; assay type: ADME, organism-based; parameters: dose 200 mg
[2] = AUC (0 to tau) in human plasma at 200 mg qd for 4 days; assay type: ADME, organism-based

Compound `CC(=O)N1CCN(c2ccc(OCC3COC(Cn4ccnc4)(c4ccc(Cl)cc4Cl)O3)cc2)CC1` (configuration not stated) [KETOCONAZOLE] has a Cmax [1] of 3770 ng/mL and an AUC tau at 96 h [2] of 16600 ng·h/mL.
